Source: US8124610B2, “Sodium channel inhibitors” (Icagen Inc., priority 2007, dated 2012)
pIC50: −log10 of the molar value. Like-named read-outs stand apart in the source and are kept apart here.

Key:
hSCN9A = target: T1, hSCN9A (Homo sapiens, UniProt Q15858); assay: Whole-cell patch-clamp electrophysiology (conventional or PatchXpress), HEK cells expressing hSCN9A, estimated IC-50; format: cell-based; details: read-out: SCN9A EIC-50
T1 construct: expressed in transfected cells
Procedure, shortened: (§1)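 Stably transfected HEK cells recorded by whole-cell voltage clamp (manual or PatchXpress) at 22–24 °C in pH 7.4 HEPES-buffered extracellular solution. Cells held at the empirically determined inactivation V1/2 after an 8 s prepulse, then stepped to 0 mV for 20 ms; % inhibition from current amplitude before vs after compound.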

hSCN3A = target: T2, hSCN3A (Homo sapiens, UniProt Q9NY46); assay: Whole-cell patch-clamp electrophysiology (conventional or PatchXpress), HEK cells expressing hSCN3A, estimated IC-50; format: cell-based; details: read-out: SCN3A EIC-50
T2 construct: expressed in transfected cells
Procedure, shortened: as §1

[1] = estimated IC-50, HEK cells expressing hSCN9A, class symbols or bounds
[2] = estimated IC-50, HEK cells expressing hSCN3A, class symbols or bounds
[3] = Table V, estimated IC-50 from single point electrophysiology, cells clamped at V1/2

T2 sequence (Q9NY46 whole entry): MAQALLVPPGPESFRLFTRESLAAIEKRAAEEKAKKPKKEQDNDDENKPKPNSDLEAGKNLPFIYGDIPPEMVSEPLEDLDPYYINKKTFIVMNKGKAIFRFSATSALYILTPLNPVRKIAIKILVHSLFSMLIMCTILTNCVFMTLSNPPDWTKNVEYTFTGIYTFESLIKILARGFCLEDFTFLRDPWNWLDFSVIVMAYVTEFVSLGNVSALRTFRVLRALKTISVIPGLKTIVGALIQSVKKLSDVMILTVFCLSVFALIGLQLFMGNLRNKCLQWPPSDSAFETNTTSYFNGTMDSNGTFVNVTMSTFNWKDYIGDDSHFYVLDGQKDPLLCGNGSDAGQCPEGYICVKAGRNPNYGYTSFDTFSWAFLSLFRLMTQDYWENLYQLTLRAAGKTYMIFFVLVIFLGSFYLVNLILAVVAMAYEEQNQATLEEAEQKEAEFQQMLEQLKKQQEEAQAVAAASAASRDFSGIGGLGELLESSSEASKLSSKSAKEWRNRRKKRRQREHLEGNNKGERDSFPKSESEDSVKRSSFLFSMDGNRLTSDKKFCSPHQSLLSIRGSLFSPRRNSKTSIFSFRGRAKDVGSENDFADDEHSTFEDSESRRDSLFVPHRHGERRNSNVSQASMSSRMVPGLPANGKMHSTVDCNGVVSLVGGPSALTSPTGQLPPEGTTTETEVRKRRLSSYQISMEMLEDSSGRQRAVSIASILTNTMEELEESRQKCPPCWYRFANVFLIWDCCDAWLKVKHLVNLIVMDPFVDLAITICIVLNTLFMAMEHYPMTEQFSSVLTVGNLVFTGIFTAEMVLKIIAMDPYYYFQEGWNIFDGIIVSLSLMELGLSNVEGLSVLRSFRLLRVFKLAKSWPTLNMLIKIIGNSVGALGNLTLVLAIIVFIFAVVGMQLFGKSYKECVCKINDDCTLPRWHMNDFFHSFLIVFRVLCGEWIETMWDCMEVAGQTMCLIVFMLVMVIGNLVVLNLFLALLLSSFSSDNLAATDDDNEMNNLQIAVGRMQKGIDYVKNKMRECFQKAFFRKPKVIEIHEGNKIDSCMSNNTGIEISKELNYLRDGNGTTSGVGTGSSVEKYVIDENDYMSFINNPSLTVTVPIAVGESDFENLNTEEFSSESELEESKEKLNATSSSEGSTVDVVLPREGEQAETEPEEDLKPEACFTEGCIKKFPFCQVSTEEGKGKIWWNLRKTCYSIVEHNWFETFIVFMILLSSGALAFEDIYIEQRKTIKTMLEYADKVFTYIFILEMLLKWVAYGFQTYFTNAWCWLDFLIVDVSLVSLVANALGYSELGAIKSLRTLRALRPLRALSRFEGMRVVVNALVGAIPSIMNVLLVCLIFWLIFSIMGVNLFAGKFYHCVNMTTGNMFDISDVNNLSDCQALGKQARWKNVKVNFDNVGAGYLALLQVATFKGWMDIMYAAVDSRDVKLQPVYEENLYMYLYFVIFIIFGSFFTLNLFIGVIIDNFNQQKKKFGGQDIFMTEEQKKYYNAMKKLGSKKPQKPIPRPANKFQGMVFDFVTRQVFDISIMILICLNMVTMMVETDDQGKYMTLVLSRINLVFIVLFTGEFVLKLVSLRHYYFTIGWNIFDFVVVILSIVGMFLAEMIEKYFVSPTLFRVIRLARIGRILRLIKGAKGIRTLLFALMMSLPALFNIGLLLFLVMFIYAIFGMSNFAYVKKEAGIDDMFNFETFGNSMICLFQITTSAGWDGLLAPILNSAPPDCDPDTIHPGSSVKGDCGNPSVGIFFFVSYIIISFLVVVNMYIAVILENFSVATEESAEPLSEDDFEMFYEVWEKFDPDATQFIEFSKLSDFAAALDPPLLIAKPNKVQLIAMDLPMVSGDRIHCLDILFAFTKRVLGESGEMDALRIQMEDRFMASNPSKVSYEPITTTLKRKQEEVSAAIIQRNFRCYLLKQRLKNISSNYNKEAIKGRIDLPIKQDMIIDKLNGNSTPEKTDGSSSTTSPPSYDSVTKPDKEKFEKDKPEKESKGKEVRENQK
T1 sequence (Q15858 whole entry): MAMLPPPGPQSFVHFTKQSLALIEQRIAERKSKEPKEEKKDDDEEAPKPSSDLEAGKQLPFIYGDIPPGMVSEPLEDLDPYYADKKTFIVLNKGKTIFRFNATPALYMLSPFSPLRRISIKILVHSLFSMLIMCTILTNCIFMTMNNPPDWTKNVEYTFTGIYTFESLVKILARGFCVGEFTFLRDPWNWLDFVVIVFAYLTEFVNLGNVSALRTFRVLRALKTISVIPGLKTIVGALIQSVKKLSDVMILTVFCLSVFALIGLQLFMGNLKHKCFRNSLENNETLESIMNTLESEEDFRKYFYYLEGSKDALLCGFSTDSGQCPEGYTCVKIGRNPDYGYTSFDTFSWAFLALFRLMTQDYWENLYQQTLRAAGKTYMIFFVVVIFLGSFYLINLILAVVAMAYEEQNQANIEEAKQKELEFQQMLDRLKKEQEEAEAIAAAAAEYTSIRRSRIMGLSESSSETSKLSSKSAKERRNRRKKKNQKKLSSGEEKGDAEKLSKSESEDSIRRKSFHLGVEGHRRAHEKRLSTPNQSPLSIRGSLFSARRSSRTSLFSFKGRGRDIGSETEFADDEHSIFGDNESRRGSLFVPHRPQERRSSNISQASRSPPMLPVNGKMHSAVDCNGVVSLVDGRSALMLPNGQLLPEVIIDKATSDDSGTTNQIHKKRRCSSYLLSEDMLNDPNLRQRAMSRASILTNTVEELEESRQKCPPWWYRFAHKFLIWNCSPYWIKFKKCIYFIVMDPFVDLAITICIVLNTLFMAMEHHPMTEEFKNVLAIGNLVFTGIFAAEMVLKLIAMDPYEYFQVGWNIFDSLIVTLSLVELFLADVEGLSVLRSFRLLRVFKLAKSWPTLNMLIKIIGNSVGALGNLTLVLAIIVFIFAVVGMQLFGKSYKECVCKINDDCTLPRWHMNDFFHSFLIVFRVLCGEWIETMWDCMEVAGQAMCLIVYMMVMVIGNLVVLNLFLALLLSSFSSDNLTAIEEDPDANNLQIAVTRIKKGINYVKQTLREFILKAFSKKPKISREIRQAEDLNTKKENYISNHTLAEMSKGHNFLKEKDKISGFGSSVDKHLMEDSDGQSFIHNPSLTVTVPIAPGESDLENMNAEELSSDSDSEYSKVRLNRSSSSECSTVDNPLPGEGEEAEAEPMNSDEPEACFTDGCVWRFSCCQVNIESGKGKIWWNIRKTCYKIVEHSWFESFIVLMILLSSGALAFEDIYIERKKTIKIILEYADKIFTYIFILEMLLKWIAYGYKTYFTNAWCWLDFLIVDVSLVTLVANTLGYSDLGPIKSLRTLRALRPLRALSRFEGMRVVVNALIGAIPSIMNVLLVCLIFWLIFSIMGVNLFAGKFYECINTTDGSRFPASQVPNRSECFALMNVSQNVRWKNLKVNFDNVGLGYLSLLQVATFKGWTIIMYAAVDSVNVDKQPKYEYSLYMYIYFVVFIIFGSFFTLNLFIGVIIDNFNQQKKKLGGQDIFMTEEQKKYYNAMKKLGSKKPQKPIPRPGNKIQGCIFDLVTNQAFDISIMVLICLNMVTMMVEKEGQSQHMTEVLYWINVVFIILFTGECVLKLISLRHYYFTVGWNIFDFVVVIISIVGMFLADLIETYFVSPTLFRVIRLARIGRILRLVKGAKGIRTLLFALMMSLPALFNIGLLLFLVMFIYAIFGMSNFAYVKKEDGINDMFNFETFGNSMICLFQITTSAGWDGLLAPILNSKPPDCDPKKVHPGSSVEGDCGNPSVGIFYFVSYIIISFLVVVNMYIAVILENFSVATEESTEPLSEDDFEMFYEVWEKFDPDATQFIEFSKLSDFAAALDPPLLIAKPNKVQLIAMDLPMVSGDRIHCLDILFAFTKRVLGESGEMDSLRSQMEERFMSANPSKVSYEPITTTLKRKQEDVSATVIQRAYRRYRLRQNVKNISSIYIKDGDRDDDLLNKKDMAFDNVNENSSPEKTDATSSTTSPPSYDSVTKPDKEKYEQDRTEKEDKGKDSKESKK

| SMILES | pIC50 (hSCN9A; [1]) | pIC50 (hSCN3A; [2]) | pIC50 (hSCN9A; [3]) | pIC50 (hSCN3A; [3]) |
| --- | --- | --- | --- | --- |
| CC(C)c1cc(Nc2ccc(S(=O)(=O)Nc3nccs3)c(F)c2)n(-c2ccccc2)n1 [Compound 145, 2-fluoro-4-(3-isopropyl-1-phenyl-1H-pyrazol-5-ylamino)-N-(thiazol-2-yl)benzenesulfonamide] | > 5.70 | > 5.70 |  |  |
| O=S(=O)(Nc1nccs1)c1ccc(Nc2cnn(Cc3ccc(C(F)(F)F)cc3)c2)cc1F [Compound 150, 2-fluoro-N-(thiazol-2-yl)-4-(1-(4-(trifluoromethyl)benzyl)-1H-pyrazol-4-ylamino)benzenesulfonamide] | > 5.70 | > 5.70 |  |  |
| CCN(CC)C(=O)Cc1cc(Nc2ccc(S(=O)(=O)Nc3nccs3)c(F)c2)n(-c2ccccc2)n1 [Compound 216, N,N-diethyl-2-(5-(3-fluoro-4-(N-thiazol-2-ylsulfamoyl)phenylamino)-1-phenyl-1H-pyrazol-3-yl)ethanamide] | > 5.70 | < 6.00 |  |  |
| Cn1nc(CC2CCCCC2)cc1Nc1ccc(S(=O)(=O)Nc2nccs2)cc1 [Compound 29, 4-(3-(cyclohexylmethyl)-1-methyl-1H-pyrazol-5-ylamino)-N-(thiazol-2-yl)benzenesulfonamide] |  |  | > 5.70 | > 5.70 |
| CC(Oc1ccccc1)c1csc(Nc2ccc(S(=O)(=O)Nc3nccs3)cc2)n1 (centres unmarked) [Compound 63, 4-(4-(1-phenoxyethyl)thiazol-2-ylamino)-N-(thiazol-2-yl)benzenesulfonamide] | 5.00 to 5.70 | > 5.70 |  |  |
| O=S(=O)(Nc1nccs1)c1ccc(Nc2nc(Cc3ccc(Cl)cc3)cs2)cc1F [Compound 1, 4-[4-(4-Chloro-benzyl)-thiazol-2-ylamino]-2-fluoro-N-thiazol-2-yl-benzenesulfonamide] |  |  | > 5.70 | > 5.70 |
| Cc1cc(Nc2ccc(S(=O)(=O)Nc3nccs3)c(F)c2)n(-c2ccccc2Cl)n1 [Compound 149, 4-(1-(2-chlorophenyl)-3-methyl-1H-pyrazol-5-ylamino)-2-fluoro-N-(thiazol-2-yl)benzenesulfonamide] | > 5.70 | > 5.70 |  |  |
| O=S(=O)(Nc1nccs1)c1ccc(Nc2nc(CNCCCCc3ccccc3)cs2)cc1 [Compound 69, 4-(4-((4-phenylbutylamino)methyl)thiazol-2-ylamino)-N-(thiazol-2-yl)benzenesulfonamide] | > 5.70 | > 5.70 |  |  |
| O=S(=O)(Nc1nccs1)c1ccc(Nc2cc(Cc3ccc(Cl)cc3)n[nH]2)cc1F [Compound 115, 4-(3-(4-chlorobenzyl)-1H-pyrazol-5-ylamino)-2-fluoro-N-(thiazol-2-yl)benzenesulfonamide] | > 5.70 | > 5.70 |  |  |
| Cc1nc(Nc2ccc(S(=O)(=O)Nc3nccs3)cc2)sc1C [Compound 80, 4-(4,5-dimethylthiazol-2-ylamino)-N-(thiazol-2-yl)benzenesulfonamide] | < 6.00 | 5.00 to 5.70 |  |  |
| O=S(=O)(Nc1nccs1)c1ccc(Nc2cc(CC(F)(F)F)nn2-c2ccccc2F)cc1F [Compound 204, 2-fluoro-4-(1-(2-fluorophenyl)-3-(2,2,2-trifluoroethyl)-1H-pyrazol-5-ylamino)-N-(thiazol-2-yl)benzenesulfonamide] | > 5.70 | > 5.70 |  |  |
| CC(C)(C)n1nc(Cc2ccc(Cl)cc2)cc1Nc1ccc(S(=O)(=O)Nc2ccccn2)cc1 [Compound 110, 4-(1-tert-butyl-3-(4-chlorobenzyl)-1H-pyrazol-5-ylamino)-N-(pyridin-2-yl)benzenesulfonamide] | < 5.00 | > 5.70 |  |  |
| COc1ccc(CCNCc2csc(Nc3ccc(S(=O)(=O)Nc4nccs4)cc3)n2)cc1OC [Compound 66, 4-(4-((3,4-dimethoxyphenethylamino)methyl)thiazol-2-ylamino)-N-(thiazol-2-yl)benzenesulfonamide] | < 5.52 | < 6.00 |  |  |
| O=S(=O)(Nc1nccs1)c1ccc(Nc2cncc(Cc3cc(F)cc(F)c3)n2)cc1 [Compound 98, 4-(6-(3,5-difluorobenzyl)pyrazin-2-ylamino)-N-(thiazol-2-yl)benzenesulfonamide] | 5.00 to 5.70 | > 5.70 |  |  |
| O=S(=O)(Nc1nccs1)c1ccc(Nc2nc(-c3ccc(C(F)(F)F)cc3)cs2)cc1 [Compound 84, N-(thiazol-2-yl)-4-(4-(4-(trifluoromethyl)phenyl)thiazol-2-ylamino)benzenesulfonamide] | > 5.70 | > 5.70 |  |  |

Results, then the compound that gave them:

| pIC50 (hSCN9A; [1]) | pIC50 (hSCN3A; [2]) | pIC50 (hSCN9A; [3]) | pIC50 (hSCN3A; [3]) | SMILES |
| --- | --- | --- | --- | --- |
| 5.00 to 5.70 | > 5.70 |  |  | O=S(=O)(Nc1nccs1)c1ccc(Nc2cnn(Cc3ccc(Cl)cc3)c2)nc1 [Compound 228, 6-(1-(4-chlorobenzyl)-1H-pyrazol-4-ylamino)-N-(thiazol-2-yl)pyridine-3-sulfonamide] |
|  |  | < 5.00 | > 5.70 | O=S(=O)(Nc1nccs1)c1ccc(Nc2nnc(Cc3ccc(C(F)(F)F)cc3)s2)cc1 [Compound 27, N-(thiazol-2-yl)-4-(5-(4-(trifluoromethyl)benzyl)-1,3,4-thiadiazol-2-ylamino)benzenesulfonamide] |
|  |  | 5.00 to 5.70 | 5.00 to 5.70 | CC(C)(C)c1cc(Nc2ccc(S(=O)(=O)Nc3nccs3)cc2)n(C(C)(C)C)n1 [Compound 22, 4-(1,3-di-tert-butyl-1H-pyrazol-5-ylamino)-N-(thiazol-2-yl)benzenesulfonamide] |
| < 6.00 | > 5.70 |  |  | CN(Cc1csc(Nc2ccc(S(=O)(=O)Nc3nccs3)cc2)n1)C(c1ccccc1)c1ccccc1 [Compound 70, 4-(4-((benzhydryl(methyl)amino)methyl)thiazol-2-ylamino)-N-(thiazol-2-yl)benzenesulfonamide] |
|  |  | < 5.00 | 5.00 to 5.70 | Nc1nc(Nc2ccc(S(=O)(=O)Nc3nccs3)cc2)nn1Cc1ccc(Cl)cc1 [Compound 24, 4-(5-amino-1-(4-chlorobenzyl)-1H-1,2,4-triazol-3-ylamino)-N-(thiazol-2-yl)benzenesulfonamide] |
| > 5.70 | > 5.70 |  |  | O=S(=O)(Nc1ncns1)c1ccc(Nc2ccn(Cc3ccc(Cl)cc3)n2)cc1F [Compound 244, 4-(1-(4-chlorobenzyl)-1H-pyrazol-3-ylamino)-2-fluoro-N-(1,2,4-thiadiazol-5-yl)benzenesulfonamide] |
|  |  | < 5.00 | > 5.70 | N#Cc1cnn(-c2ccc(F)c(Cl)c2)c1Nc1ccc(S(=O)(=O)Nc2nccs2)cc1 [Compound 25, 4-(1-(3-chloro-4-fluorophenyl)-4-cyano-1H-pyrazol-5-ylamino)-N-(thiazol-2-yl)benzenesulfonamide] |
| 5.00 to 5.70 | > 5.70 |  |  | O=S(=O)(Nc1nccs1)c1ccc(Nc2ccn(Cc3ccc(Cl)cc3)n2)cn1 [Compound 235, 5-(1-(4-chlorobenzyl)-1H-pyrazol-3-ylamino)-N-(thiazol-2-yl)pyridine-2-sulfonamide] |
|  |  | < 5.00 | > 5.70 | CC(C)(C)c1cc(Nc2ccc(S(=O)(=O)Nc3nccs3)cc2)no1 [Compound 18] |
| > 5.70 | > 5.70 |  |  | O=S(=O)(Nc1nccs1)c1ccc(Nc2ccn(Cc3ccc(C(F)(F)F)cc3)n2)c(F)c1 [Compound 185, 3-fluoro-N-(thiazol-2-yl)-4-(1-(4-(trifluoromethyl)benzyl)-1H-pyrazol-3-ylamino)benzenesulfonamide] |
| > 5.70 | > 5.70 |  |  | O=S(=O)(Nc1nccs1)c1ccc(Nc2nc(CNCC(c3ccccc3)c3ccccc3)cs2)cc1 [Compound 56, 4-(4-((2,2-diphenylethylamino)methyl)thiazol-2-ylamino)-N-(thiazol-2-yl)benzenesulfonamide] |
| 5.00 to 5.70 | 5.00 to 5.70 |  |  | COc1ccc(CNCc2csc(Nc3ccc(S(=O)(=O)Nc4nccs4)cc3)n2)c(OC)c1 [Compound 76, 4-(4-((2,4-dimethoxybenzylamino)methyl)thiazol-2-ylamino)-N-(thiazol-2-yl)benzenesulfonamide] |
|  |  | 5.00 to 5.70 | 5.00 to 5.70 | CN(c1ccc(S(=O)(=O)Nc2nccs2)c(F)c1)c1nc(Cc2ccc(Cl)cc2)cs1 [Compound 6, 4-[4-(4-Chloro-benzyl)-thiazol-2-yl]-methyl-amino-2-fluoro-N-thiazol-2-yl-benzenesulfonamide] |
| > 5.70 | > 5.70 |  |  | Cn1nc(-c2ccc(Cl)cc2)cc1Nc1ccc(S(=O)(=O)Nc2nccs2)c(F)c1 [Compound 153, 4-(3-(4-chlorophenyl)-1-methyl-1H-pyrazol-5-ylamino)-2-fluoro-N-(thiazol-2-yl)benzenesulfonamide] |
| > 5.70 | > 5.70 |  |  | Cn1nc(C2(c3ccc(Cl)cc3)CC2)cc1Nc1ccc(S(=O)(=O)Nc2nccs2)cc1 [Compound 129, 4-(3-(1-(4-chlorophenyl)cyclopropyl)-1-methyl-1H-pyrazol-5-ylamino)-N-(thiazol-2-yl)benzenesulfonamide] |
|  |  | > 5.70 | > 5.70 | O=S(=O)(Nc1nccs1)c1ccc(Nc2cc(C3CC3)nn2-c2ccccc2)cc1F [Compound 32, 4-(3-cyclopropyl-1-phenyl-1H-pyrazol-5-ylamino)-2-fluoro-N-(thiazol-2-yl)benzenesulfonamide] |
| 5.00 to 5.70 | > 5.70 |  |  | O=S(=O)(Nc1nccs1)c1ccc(Nc2cncc(C(c3ccccc3)c3ccccc3)n2)cc1 [Compound 92, 4-(6-benzhydrylpyrazin-2-ylamino)-N-(thiazol-2-yl)benzenesulfonamide] |
| > 5.70 | > 5.70 |  |  | O=S(=O)(Nc1nccs1)c1ccc(Nc2ccn(Cc3ccc(Cl)cc3)n2)c(Cl)c1 [Compound 205, 3-chloro-4-(1-(4-chlorobenzyl)-1H-pyrazol-3-ylamino)-N-(thiazol-2-yl)benzenesulfonamide] |
|  |  | 5.00 to 5.70 | 5.00 to 5.70 | CC(C)(C)c1cc(Nc2ccc(S(=O)(=O)Nc3nccs3)cc2)[nH]n1 [Compound 23, 4-(3-tert-butyl-1H-pyrazol-5-ylamino)-N-(thiazol-2-yl)benzenesulfonamide] |
